According to patent US10195170B2, “Methods for inhibiting expression of ASC, expression of NLRP3, and/or formation of NLRP3 inflammasome complex using diacerein or its analogs” (TWi Biotechnology, Inc., priority 2015, dated 2019):

Columns and labels:
ASC = experiment: Immunofluorescence staining (fluorescence confocal assay) of ASC in MSU-stimulated THP-1 cells; format: cell-based, human; details: PMA-primed THP-1 cells, then 100 μg/mL MSU for 6 hours
Description: (§1) The 20 mg of rhein powder was dissolved in 1 mL 100% dimethyl sulfoxide (DMSO), sterilized by 0.22 μm pore filter membranes, and stored at −20° C. before use. The monosodium urate (MSU) crystal (10 mg/mL) was prepared in sterilized phosphate buffered saline (PBS). The adenosine […] disodium salt (ATP) was dissolved in ddH2O and sterilized by 0.22 μm pore filter membranes. THP-1, human acute monocytic leukemia cell line (ATCC® TIB-202), were suspended in RPMI-1640 medium (GIBCO, Life Technologies, Grand Island, USA) supplemented with 10% fetal bovine serum and 1% of antibiotics (penicillin-streptomycin-amphotericin B) conditioned media. For macrophage-like differentiation, THP-1 cells were primed by 0.1 μM phorbol myristyl acetate (PMA) for 24 hours. […] For cell viability, PMA-primed THP-1 cells were detected in the presence or absence of rhein incubation for 24 hours by the Cell Counting Kit-8 (CCK-8 assay, Sigma-Aldrich, St Louis, USA). […] Fluorescence confocal assay was performed to detect the human ASC and NLRP3 expression in paraformaldehyde-fixed THP-1 cells after treatment. […] The stained areas of ASC (green) and NLRP3 (red) staining distributions were quantified and analyzed by Metamorph analyzer. […] P-value was determined by the two-tailed unpaired t-test.

NLRP3 = experiment: Immunofluorescence staining (fluorescence confocal assay) of NLRP3 in MSU-stimulated THP-1 cells; format: cell-based, human; details: PMA-primed THP-1 cells, then 100 μg/mL MSU for 6 hours
Description: as §1

Which results are given for `O=C(O)c1cc(O)c2c(c1)C(=O)c1cccc(O)c1C2=O` [rhein, 9, 10-dihydro-4,5-dihydroxy-9, 10-dioxo-2-anthracene carboxylic acid]?
decrease of staining of ASC sections, average intensity of area/cell (ASC; rhein 5 μg/mL overnight (lower dose), P=0.0011): about 64.0%; decrease of staining of ASC sections, average intensity of area/cell (ASC; rhein 10 μg/mL overnight (higher dose), P=0.0022): ~79.0%; inhibition of NLRP3 levels, average intensity of area/cell (NLRP3; rhein 5 μg/mL overnight (lower dose), P=0.014): about 62.5%; inhibition of NLRP3 levels, average intensity of area/cell (NLRP3; rhein 10 μg/mL overnight (higher dose), P=0.0012): ~84.1%
